The source of these data is patent publication US20230034660A1, “PEPTIDES THAT ENHANCE NMDA RECEPTOR FUNCTION AND USE THEREOF” (University of Pittsburgh - Of the Commonwealth System of …, priority 2019, published 2023).

For the experiment, the target named is T1, mouse ZnT-1 (Mus musculus, UniProt Q60738).
T1 construct: host or cells: HEK293
T1 sequence (Q60738 1-503): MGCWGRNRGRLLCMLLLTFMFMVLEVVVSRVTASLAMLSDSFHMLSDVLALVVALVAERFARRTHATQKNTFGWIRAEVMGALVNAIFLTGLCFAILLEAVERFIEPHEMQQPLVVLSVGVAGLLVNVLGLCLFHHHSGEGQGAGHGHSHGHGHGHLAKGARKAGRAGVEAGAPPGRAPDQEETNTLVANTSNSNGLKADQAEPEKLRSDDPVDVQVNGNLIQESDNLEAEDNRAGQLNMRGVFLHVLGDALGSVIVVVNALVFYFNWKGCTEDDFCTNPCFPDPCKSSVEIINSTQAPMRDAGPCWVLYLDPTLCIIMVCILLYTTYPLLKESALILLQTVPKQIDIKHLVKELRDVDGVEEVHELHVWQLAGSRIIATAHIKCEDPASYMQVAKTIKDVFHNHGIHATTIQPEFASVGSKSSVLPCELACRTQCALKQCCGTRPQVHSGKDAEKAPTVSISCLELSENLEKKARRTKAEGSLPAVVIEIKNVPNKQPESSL
The experiment is described as follows: Zinc efflux assay (FluoZin-3) in ZnT1-transfected HEK293 cells. Conditions: ZnT1-expressing HEK293 cells, 3 μM overnight, N2AZ versus scN2AZ. It counts as cell-based. The procedure: HEK293 cells were grown in Dulbecco's modified Eagle's medium (DMEM) containing: 100 units/ml penicillin, 0.1 mg/ml streptomycin, 2 mm glutamine, and 10% (v/v) fetal calf serum in a 5% CO2 humidified atmosphere at 37° C. To express ZnT1, HEK 293 cells were transfected with ZnT1 or empty plasmid (control) using CaPO4 precipitation. Briefly,1 μg mouse ZnT-1 (pCMV6:ZnT1 Gen Bank Q60738) or empty vector plasmid (pCMV6, Origene) was incubated with 2 M calcium chloride in HEPES buffered solution containing […] to generate a co-precipitate, this solution was then dispersed onto cultured cells for 6 hours. Twenty four hours later, cells were treated with the scN2AZ or N2AZ (3 μM ) overnight. […] Rates of initial decrease of the fluorescent signal following exposure to Zn^2+ were determined during a 100 second period. […] Fluorescence imaging measurements were acquired using Axon Imaging Workbench 5.2 (INDEC BioSystems) and analyzed using Excel and Prism GraphPad.
Next, it was examined whether N2AZ could modify ZnT1-dependent zinc transport. Following an intracellular zinc load, decreases in intracellular zinc levels were measured over time as a readout of zinc transport in HEK293 cells previously transfected with a plasmid encoding for ZnT1 or an empty vector. FluoZin-3 fluorescence was utilized to quantify intracellular zinc levels (Qin et al., 2009; Shusterman et al., 2014). […]

On to NDSYLRSSL [Peptide N2AZ], for which the “rate of zinc efflux” value is recorded as “not different”.
